The mortality is the percentage killed. High values mean fewer survivors, low ones more survivors.

Consider 3 molecules from US8480995B2, “Use of sodium selenosulfate for supplementing selenium and enhancing the therapeutic efficacy of chemotherapy agents, and a rapid process for preparing sodium selenosulfate” (University of Science and Technology of China, priority 2007, dated 2013).

Data set [1] deals with hepatoma H22 cell. Put plainly: Treatment of mice bearing H22 ascites with cisplatin with or without sodium selenosulfate. It counts as in vivo. The following applies: for Survival time of dead mice: mean±SD. Here is the method: Animals: Se-sufficient male Kunming mice (body weight: 20-23 g) were purchased from Shanghai Laboratory Animal Center, Chinese Academy of Sciences. Drugs Administration: 48 mice were divided randomly into 6 groups with 8 mice in each group. Each mouse was inoculated intraperitoneally with hepatoma H22 cell suspension (20×10^6 cells). The groups were classified into 3 cisplatin groups, 2 cisplatin plus Se-supplementing groups (the groups administrated with 8 and 10 mg/kg doses of cisplatin were treated with 0.6 and 0.75 mg Se/kg doses of sodium selenosulfate, respectively) and 1 control group in terms of the administration doses (5, 8 and 10 mg/kg) of cisplatin. The experiments were carried out with one week as a cycle. The experiments with cisplatin doses of 5 and 8 mg/kg were carried out for total 4 cycles, and those with cisplatin dose of 10 mg/kg were performed for total 3 cycles. From the first day of each cycle, the mice in cisplatin groups was intraperitoneally injected with the corresponding concentrations of cisplatin, and the mice in cisplatin plus Se-supplementing groups were injected intraperitoneally with the corresponding sodium selenosulfate doses of 0.6 and 0.75 mg Se/kg respectively 4 hours before the intraperitoneal injection of cisplatin. The treatment was performed for 5 consecutive days. The first cisplatin chemotherapy started at 48 hours after the inoculation of tumor cells. The animal status was recorded and the development of malignant ascites was observed. Statistical analysis: Data were expressed as mean±SD. The differences between the groups were examined using ANOVA. A p value less than 0.05 was considered statistically significant.

Data set [2] relates to glutathione peroxidase (GPx). Description: Se-supplementing effect in Se-deficient mice: GPx activity in serum, liver and kidney. The following applies: mean±SD; for Liver GPx: relative to control 1.00 (control 88.5 unit/mg protein); for Kidney GPx: relative to control 1.00 (control 142.8 unit/mg protein); for Serum GPx: relative to control 1.00 (control 525.5 unit/mL serum). It counts as in vivo. Here is the method:
(§1) It has been reported that high doses of sodium selenite can reduce the symptom of severely ill patient and enhance the therapeutic efficacy of chemotherapy agents for cancers. It remains unknown whether there are differences regarding the Se-supplementing effect between sodium selenosulfate and sodium selenite at pharmacologic doses. In this example, Se-deficient mice were intraperitoneally injected with sodium selenite and sodium selenosulfate at doses of 0.5 and 1 mg Se/kg for a week. The enzyme activity and selenium were measured to compare the Se-supplementing effect between the two selenium compounds.
(§2) Animals: Se-deficient male Kunming mice (body weight: 20-23 g) were purchased from the animal center of Anhui Medical University. Drugs Administration: 35 mice were randomly divided into 5 groups with 7 mice in each group. The mice in the control group were injected with normal saline, and those in other groups were injected respectively with different doses of sodium selenite and sodium selenosulfate (0.5 and 1 mg Se/kg) for 7 consecutive days. Biochemical parameters: 24 hours after the last Se administration, blood was sampled from ophthalmic veins to obtain serum by centrifugation, and then the Se form and glutathione peroxidase (GPx) activity therein were determined. Meanwhile, liver and kidney were excised and stored at −30° C., and a part of them were used to determine Se. A part of livers and kidneys were homogenized and centrifuged to obtain supernatant, and then GPx activity and glutathione S-transferase (GST) activity in livers were determined. Statistical analysis: Data were expressed as mean±SD. The differences between the groups were examined using ANOVA. A p value less than 0.05 was considered statistically significant.

Data set [3] deals with glutathione S-transferase (GST). Description: Se-supplementing effect in Se-deficient mice: GST activity in liver. It counts as in vivo. To be noted: relative to control 1.00 (control 4071.4 unit/mg protein), mean±SD. On the procedure:
as §1, §2

The subject of data set [4] is Se-sufficient male Kunming mice. Put plainly: Toxicity to normal tissues in Se-sufficient mice, i.p. once daily for 14 days. It counts as in vivo. To be noted: for mortality: FIG. 3; for hepatic tissue slices with hydropic or fatty degeneration / serum ALT and AST activity (hepatotoxicity): 2 mg Se/kg, 14 days; for hepatic tissue slices with hydropic or fatty degeneration: HE stain, selenite moderate (FIG. 5), selenosulfate slight (FIG. 6); for serum ALT and AST activity (hepatotoxicity): FIG. 4; for suppression of the growth of the mice (body weight): 2 and 3 mg Se/kg, same Se levels compared, FIG. 2. Here is the method: Animals: Se-sufficient male Kunming mice (body weight: 23±1 g) were purchased from the Shanghai Laboratory Animal Center, Chinese Academy of Sciences. Drugs Administration: 50 mice were randomly divided into 5 groups with 10 mice in each group. The mice in the control group were injected intraperitoneally with normal saline, and the other groups were injected with sodium selenite (2 groups) and sodium selenosulfate (2 groups) respectively at 2 and 3 mg Se/kg once daily for 14 consecutive days. The mice in low dosage groups were sacrificed 24 hours after the last Se administration. Animal status: The body weight and dead status of the mice were recorded every day. Biochemical parameters: Blood was sampled from ophthalmic veins for determining serum ALT activity and AST activity. Pathology: Liver was excised for the determination. The slice was dyed by using HE. Statistical analysis: Data were expressed as mean±SD. The differences between the groups were examined using ANOVA. A p value less than 0.05 was considered statistically significant.

Data set [5] is described as follows: Se-supplementing effect in Se-deficient mice: Se level in serum, liver and kidney. It counts as in vivo. To be noted: mean±SD; for Serum Se: relative to control 1.00 (control 0.07 μg/mL serum); for Liver Se: relative to control 1.00 (control 0.15 μg/g liver); for Kidney Se: relative to control 1.00 (control 0.44 μg/g kidney). On the procedure:
as §1, §2

For data set [6], the system named is Human hepatoma cells (HepG2). Description: Cell killing assay (MTT, 72 hours). It counts as cell-based. To be noted: FIG. 7A. On the procedure: (§3) Cell culture: Human hepatoma cells (HepG2) and human colorectal cancer cells (CaCo2) were cultivated at 37° C. under 5% CO2 by using EMEM cell culture media containing 10% Fetal Bovine serum. Cell killing assay: the tumor cells were added into a 96-well plate with a density of 5000 cells/well for 24 hours, and then the culture media were changed to those with different Se concentrations. At 72 hours, the cell numbers were determined by MTT protocol. Each treatment was conducted in 3 parallels, and the data were expressed by percent relative to cell numbers when no Se was added. Cell proliferation assay: HepG2 or CaCo2 cells were added into a 96-well plate with a density of 1000 cells/well for 24 hours, and then the culture media were changed to those with 12.5 μM Se. The day was defined as day 0. The cell numbers were determined by MTT protocol on day 0, 2, 4 and 6, respectively. Each treatment was conducted with 8 parallels, and the data were expressed with percent relative to the cell numbers on day 0. MTT assay: Each well was added with 20 μL MTT (5 mg/mL) 4 hours prior to the end of culture. After the culture was ended, the supernatant was discarded, and the formazan particles were dissolved in HCl-isopropanol (10 μL/well). The readings were recorded at 595 nm on a microplate reader.

For data set [7], the system named is Human hepatoma cells (HepG2). Put plainly: Cell proliferation assay (MTT, day 0-6). To be noted: 12.5 μM Se, day 0-6, MTT; FIG. 7B. The format is cell-based. Here is the method:
as §3

The mark [8] stands for this setting: cisplatin 5 mg/kg i.p., 4 cycles.
The mark [9] stands for this setting: cisplatin 8 mg/kg i.p., 4 cycles.
Setting [10] is: cisplatin 10 mg/kg i.p., 3 cycles.
Where [11] appears, read: 2 mg Se/kg i.p. once daily 14 days.
[12] abbreviates: 3 mg Se/kg i.p. once daily 14 days.

Regarding `N.N.[Cl][Pt][Cl]` [Cisplatin, cisplatin], the “suppression of the development of malignant ascites” value is on record as “could not suppress the rapid development of malignant ascites” in data set [1] (cisplatin 5 mg/kg); “could efficiently suppress the development of malignant ascites” in data set [1] (cisplatin 8 and 10 mg/kg). The values for the Cure rate in data set [1] (setting [8]), in data set [1] (setting [9]) and in data set [1] (setting [10]) were 0%, 0% and 25%, respectively. Further, the Death rate worked out at 100% in data set [1] (setting [8]), 100% in data set [1] (setting [9]) and 75% in data set [1] (setting [10]). The “Survival time of dead mice” value in data set [1] (setting [8]) came to 20 ± 7 days; in data set [1] (setting [9]), 31 ± 12 days; in data set [1] (setting [10]) it was 21 ± 9 days.
With `O=[Se](O)O` [Sodium selenite, sodium selenite], in data set [2] (0.5 mg/kg i.p. 7 days), the “Liver GPx” value was 19.8 ± 0.08, the “Kidney GPx” value is 8.74 ± 0.14 and the “Serum GPx” value turned out to be 2.97 ± 0.37. For the same molecule, in data set [2] (1.0 mg/kg i.p. 7 days), the “Liver GPx” value worked out at 22.2 ± 0.10, the “Kidney GPx” value turned out to be 10.2 ± 0.14 and the “Serum GPx” value was 4.18 ± 0.26. The “Liver GST” value in data set [3] (0.5 mg/kg i.p. 7 days) is 1.64 ± 0.23. For the same molecule, the “Liver GST” value in data set [3] (1.0 mg/kg i.p. 7 days) was 2.44 ± 0.14. The molecule also displayed a mortality in data set [4] (setting [11]) of 20%. Moreover, in data set [4], the “hepatic tissue slices with hydropic or fatty degeneration” value is given as “up to 80%”; the “serum ALT and AST activity (hepatotoxicity)” value is “made ALT and AST increased significantly”; the “suppression of the growth of the mice (body weight)” value is “significantly stronger than that of sodium selenosulfate”. The same molecule came in with a mortality in data set [4] (setting [12]) of 90%.
`O=S(=O)([O-])[Se-].[Na+].[Na+]` [Sodium selenosulfate, sodium selenosulfate]: in data set [5] (0.5 mg/kg i.p. 7 days), the “Serum Se” value worked out at 5.69 ± 0.13, the “Liver Se” value was 11.2 ± 0.09 and the “Kidney Se” value is recorded as 2.85 ± 0.10. In data set [5] (1.0 mg/kg i.p. 7 days), the “Serum Se” value was determined as 5.24 ± 0.39, the “Liver Se” value is 15.2 ± 0.09 and the “Kidney Se” value is listed as 3.90 ± 0.14. In data set [2] (0.5 mg/kg i.p. 7 days), the “Liver GPx” value worked out at 18.8 ± 0.19, the “Kidney GPx” value is recorded as 7.74 ± 0.19 and the “Serum GPx” value stood at 3.10 ± 0.25. Besides, in data set [2] (1.0 mg/kg i.p. 7 days), the “Liver GPx” value is given as 22.2 ± 0.16, the “Kidney GPx” value is reported as 9.09 ± 0.18 and the “Serum GPx” value worked out at 4.41 ± 0.24. The “Liver GST” value in data set [3] (0.5 mg/kg i.p. 7 days) turned out to be 1.47 ± 0.29. In addition, the “Liver GST” value in data set [3] (1.0 mg/kg i.p. 7 days) turned out to be 2.69 ± 0.23. Besides, in data set [4] (setting [11]), the mortality result is on record as “all the mice treated with sodium selenosulfate survived”. In data set [4], the “hepatic tissue slices with hydropic or fatty degeneration” value is listed as 20%; the “serum ALT and AST activity (hepatotoxicity)” value is recorded as “such phenomenon was not found”; the “suppression of the growth of the mice (body weight)” value was “could suppress the growth of the mice as compared with the control”. In data set [4] (setting [12]), this molecule had a mortality of 20%. The “killing effect on HepG2 cells” value in data set [6] was “dose-dependent profile on killing HepG2 cells at levels of 6-18 μM”. The “suppression of proliferation of HepG2 cells” value in data set [7] is recorded as “fully suppressed the proliferation of HepG2 cells”.
